The source of these data is PMC11089204 (Frontiers in Pharmacology, 2024).

A short description of data set [1]: Pharmacokinetics and metabolites in mouse plasma after oral psilocybin. The following applies: 3 mg/kg psilocybin p.o. The format is in vivo, C57BL/6J mice. The method, then:
C57BL/6J adult male mice (Janvier, Le Genest-Saint-Isle, France) were maintained in littermate pairs in standard cages (containing sawdust, a sleeping chamber, tissue paper, and a wood stick) with water and pellet food available ad libitium. The colony room was on a reversed light-dark cycle (dark phase 07:00 to 19:00) with temperature at 22°C and humidity at 50–60%. A total of 10 mice were dosed orally with either 3 mg/kg bodyweight psilocybin (n = 5) or saline solution (n = 5). Dosing and blood sampling were conducted between 09:00 and 13:00. The mouse was placed in a plastic restrainer with the tail protruding through a hole in the end of the tube. The tail was immersed in warm water for 1 min for vasodilation and then a small incision was made on the lateral tail surface near the distal tip. 50 μL of blood was massaged gently into an EDTA-coated capillary blood tube (Mircovette, Sarstedt, Nümbrecht, Germany). The first (baseline) blood sample was collected directly before compound administration via oral gavage and the mouse was then returned to the home cage. Further blood samples were collected at 15, 30, 60, and 120 min post-treatment. Each sample was drawn from the same incision site, with mice maintained in the home cage in the intervening periods. The blood samples were stored on ice and centrifuged for 10 min at 780 × g and 4°C. Subsequently, the plasma was transferred into cryotubes (Protein LoBind, Eppendorf) and stored at −80 °C until analysis. All procedures were conducted under a permit for animal experimentation (ZH038/2022) issued by the Veterinary Office Zurich in accordance with the Animal Protection Act (1978) of Switzerland. The use of psilocybin was authorized by the Federal Office of Public Health (FOPH).
Pharmacokinetic parameters were calculated using Phoenix WinNonlin software (version 8.1.0, Certara, Princeton, USA). The elimination half-life (t1/2, min) was assessed as t1/2 = ln(2)/λ, while the elimination constant was calculated by linear regression in the terminal elimination phase. The maximal plasma concentration (Cmax, ng/mL) and the time to reach this concentration (tmax, h) were direct read-outs of the graphical plots.

Data set [2] is described as follows: Metabolites in human plasma after oral psilocybin (reanalysed study samples). The following applies: 30 mg psilocybin p.o., n = 5.
A further data set concerns the target T1, recombinant CYP2D6 (Homo sapiens, UniProt P10635).
T1 construct: purchased Corning Life Sciences B.V
Nature of the data set: Incubation with recombinant CYP2D6 enzymes. In kind it is in vitro ADME. The settings on record: rec. CYP2D6 with CYP2D6 inhibitor quinidine. The method, then:
Corning UltraPool human liver microsomes (HLM) 150 (20 mg/mL), human intestinal microsomes (HIM) pool (10 mg/mL) as well as recombinant human CYP enzymes (with P450 oxidoreductase, OR) including CYP1A2+OR (0.5 nmol), CYP2B6+OR (0.5 nmol), CYP2C8+OR (1.0 nmol), CYP2C9*1+OR (1 nmol), CYP2C19+OR (0.5 nmol), CYP2D6*1+OR (0.5 nmol), CYP2E1+OR + cytochrome b5 (1 nmol), CYP3A4+OR + cytochrome b5 (0.5 nmol), MAO-A (5 mg/mL), MAO-B (5 mg/mL), and UGT1A10 (5 mg/mL) were purchased from Corning Life Sciences B.V (Amsterdam, Netherlands). All microsomes and recombinant enzyme solutions were aliquoted and stored at −80 °C until further use.
The total volume of the reaction mixture was 500 μL. […] Samples were either directly analyzed by liquid chromatography tandem mass spectrometry (LC-MS/MS) or briefly stored at −20°C until analysis.

For another data set, the system named is mice. Also on record: method as in Sherwood et al., 2020. The settings on record: ref Sherwood et al., 2020; cited from earlier work.
In another data set the target is mouse 5-HT2A receptor. On the set-up: method as in Sherwood et al., 2020. The settings on record: Gq-dependent calcium flux, nearly full agonist; ref Sherwood et al., 2020; cited from earlier work.

T1 sequence (P10635 whole entry): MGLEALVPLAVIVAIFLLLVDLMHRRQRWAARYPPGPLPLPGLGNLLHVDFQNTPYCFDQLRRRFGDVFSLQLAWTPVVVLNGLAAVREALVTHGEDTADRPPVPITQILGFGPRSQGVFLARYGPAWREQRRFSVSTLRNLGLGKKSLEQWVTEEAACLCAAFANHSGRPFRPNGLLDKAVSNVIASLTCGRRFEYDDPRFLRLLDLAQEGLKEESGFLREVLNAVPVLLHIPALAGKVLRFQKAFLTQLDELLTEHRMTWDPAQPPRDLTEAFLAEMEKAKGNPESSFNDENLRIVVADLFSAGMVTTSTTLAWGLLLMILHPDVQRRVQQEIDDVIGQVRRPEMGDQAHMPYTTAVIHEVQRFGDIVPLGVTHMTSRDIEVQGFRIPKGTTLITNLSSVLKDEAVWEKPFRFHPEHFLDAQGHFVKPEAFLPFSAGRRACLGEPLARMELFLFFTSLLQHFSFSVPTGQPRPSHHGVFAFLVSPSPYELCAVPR

The term Tmax denotes the time at which the peak concentration occurs. The term EC50 denotes the concentration needed to bring the measured effect to its halfway point. In the case of `CNCCc1c[nH]c2cccc(O)c12` [norpsilocin, N-methyl-4-hydroxytryptamine], the Tmax in data set [1] (male, C57BL/6J, po, mouse plasma, n = 5, read-out: tmax (mean ± SD)) was roughly 15 min. Further, in data set [2], the “detection in human plasma” value is “neither norpsilocin nor 4-HTP was detected”. Also, at recombinant CYP2D6, the “metabolite formation on co-incubation with quinidine” value was “reduced and delayed formation”. Moreover, the “psychoactive properties in head-twitch response” value in the data set with mice is “did not show any psychoactive properties”. In addition, on mouse 5-HT2A receptor, the 50% effective concentration (EC50) is less than 10 nM.

As for `CN(C)CCc1c[nH]c2cccc(OP(=O)(O)O)c12` [psilocybin], the “detection in mouse plasma” value in data set [1] was “did not detect”. Moreover, in data set [2], the “detection in human plasma” value is “did not detect”.
